Legend:
mixture of bacteria = assay: CTFA Preservative Challenge Test on shampoo, mixed bacteria (with Kull synergism calculation); assay type: cell-based; settings: for Mixed Bacteria Day 7 Count / Mixed Bacteria Day 14 Count: shampoo containing sample, initial count 4×10^6 cfu/mL; for Mixed Bacteria Day 7 Count: surviving organisms on day 7; for Mixed Bacteria Day 14 Count: surviving organisms on day 14; for Mixed Bacteria Day 7 kill reduction / Mixed Bacteria Day 14 kill reduction: shampoo, versus initial count 4×10^6 cfu/mL
Description: (§1) The CTFA Preservative Challenge Test was performed on a shampoo containing the samples below against a mixture of fungi (C. albicans (ATCC #10231) and A. brasiliensis (ATCC #16404)) having an initial count of 7.9×10^5 cfu/mL or a mixture of bacteria having an initial count of 4×10^6 cfu/mL. The shampoos inoculated with bacteria were allowed to stand for 14 days and the shampoos inoculated with fungi were allowed to stand for 7 days. The samples were evaluated for surviving organisms on day 7 for fungi-innoculated shampoos and days 7 and 14 for bacteria-innoculated shampoos.
From the table, synergism for the combinations above against mixed bacteria in shampoo was calculated by the method described in C. E. Kull et al., “Mixtures of Quaternary Ammonium Compounds and Long-chain Fatty Acids as Antifungal Agents”, Applied Microbiology, 9:538-541 (1961). The synergism value (QA/Qa+QB/Qb) was determined. […] Qa is the concentration of the first component alone (in percent by weight) required to yield 100% retardation of the bacteria. Qb is the concentration of the second component alone (in percent by weight) required to yield 100% retardation of the bacteria. When the value of (QA/Qa+QB/Qb) is less than one, the mixture is synergistic. Values for (QA/Qa+QB/Qb) of 1 and greater represent an additive effect and an antagonistic effect, respectively. Here, (QA/Qa+QB/Qb) is (([…])+([…]) or <0.75. Accordingly, the mixture of 0.2% mastic oil and 0.05% piroctine olamine is synergistic. The mixture of 2% mastic water and 2% ELA, the mixture of 2% mastic water and 0.5% sodium p-anisate, and the mixture of 4% mastic water and 1% quinic acid are also synergistic.

[1] = tested on: mixture of fungi (C. albicans (ATCC #10231) and A. brasiliensis (ATCC #16404)); assay: CTFA Preservative Challenge Test on shampoo, mixed fungi; assay type: cell-based; settings: for Mixed Fungi Day 7 Count: shampoo containing sample, initial count 7.9×10^5 cfu/mL, surviving organisms on day 7; for Mixed Fungi Day 7 kill reduction: shampoo, versus initial count 7.9×10^5 cfu/mL
Description: as §1

SMILES | Mixed Bacteria Day 7 Count (mixture of bacteria) | Mixed Bacteria Day 14 Count (mixture of bacteria) | Mixed Bacteria Day 7 kill reduction (mixture of bacteria) | Mixed Bacteria Day 14 kill reduction (mixture of bacteria) | Mixed Fungi Day 7 Count [1] | Mixed Fungi Day 7 kill reduction [1]
Cc1cc(CC(C)CC(C)(C)C)n(O)c(=O)c1.NCCO (stereo not drawn) [0.1% Piroctine olamine, Piroctine olamine] | 1.2 × 10^5 cfu/mL | 1.3 × 10^5 cfu/mL | (<97% kill | (<97% kill | 5.9 × 10^4 cfu/mL | (<90% kill
COc1ccc(C(=O)[O-])cc1.[Na+] [1% Sodium p-anisate, sodium p-anisate] | 2.3 × 10^4 cfu/mL | – | (<99% kill | – | – | –
O=C(O)[C@]1(O)C[C@@H](O)[C@@H](O)[C@H](O)C1 [2.5% Quinic acid, quinic acid] | – | – | – | – | 1.4 × 10^5 cfu/mL | (<90% kill
CCCCCCCCCCCC(=O)N[C@@H](CCCN=C(N)N)C(=O)OCC.Cl [5% ELA HCl, ethyl lauroyl arginate HCl] | – | 1.3 × 10^2 cfu/mL | – | (<99.9% kill | – | –

Reference: patent US12491226B2, “Mastic-derived natural protectants” (BARENTZ NORTH AMERICA, LLC, priority 2018, dated 2025)
